US20250152580A1, “METHODS FOR TREATING IMMUNE DISEASES” (Ascentage Pharma (Suzhou) co., Ltd., priority 2022, published 2025)
“Also recorded” adds a separate entry of the source.

Experiments:
Type in all cases: in vivo
[1] = test system: TNBS induced inflammatory bowel disease (IBD) model; assay: TNBS induced inflammatory bowel disease (IBD) model in Balb/c mice; settings: 50 mg/kg po qd, mesalamine day −1 to day 6, compared with Vehicle
Excerpt: There are two kinds of IBD: Crohn's disease (CD) and ulcerative colitis (UC). TNBS administration results in a preclinical mouse model replicating clinical Crohn's disease.
Female Balb/c mice (8 weeks old) were obtained from Beijing Vital River Laboratory Animal Co. Ltd. Animals were housed and handled in a temperature-controlled environment with a 12-h light/12-h dark cycle. A total of 50 mice were assigned to 5 groups by randomization based on body weight.
On Day 0, the mice weighing 18-20 g were anesthetized with […] (Easycheck, M2910). The mice were further intra-rectally injected 100 μL 1.5% TNBS solution (final concentration 50% ethanol) in the vehicle group and other treatment groups. For the Sham group, the mice were intra-rectally injected with 50% ethanol at the same volume.
Mice in Group 1 and Group 2 were treated with vehicle for 8 days (po, qd, from day −1 to day 6). Mice in Group 3 were treated with 50 mg/kg Cpd. 4 for 8 days (preventive regimen, po, qd, from day −1 to day 6). Mice in Group 4 were treated with 50 mg/kg Cpd. 4 for 6 days (therapeutic regimen, po, qd, from day 1 to day 6). 50 mg/kg Mesalamine was used as positive control which was orally administered to mice in Group 5 for 8 days (preventive regimen, qd, from day −1 to day 6). The protocols and procedures involving the care and use of animals were approved by the Institutional Animal Care and Use Committee (IACUC) at WuxiApptec (Shanghai, China).
Clinical signs of IBD were assessed every day based on the score of disease activity index (DAI) which was evaluated from three parameters using a scoring system from 0 to 4: stool consistency (0, normal stool; 1, soft but still formed stool; 2, soft and not formed stool; 3, very soft and wet stool; 4, watery diarrhea), bleeding score (0, negative hemoccult; 1, weak positive hemoccult; 2, positive hemoccult; 3, blood trace in stool visible; 4, gross rectal bleeding) and body weight loss (0, no body weight loos; 1, 1-5% body weight loss; 2, 6-10% body weight loss; 3, 11-20% body weight loss; 4, >20% body weight loss).
At the end of induction with TNBS (day 7), the animals were euthanized, dissected and the entire colon was quickly removed and gently cleared of feces.
The entire colon was weighed, and the total length was measured. Colon weight gain and shortening is an indirect marker of inflammation. As expected, colon weight induced by TNBS increased to 336.8±25.15 mg. […] The TNBS-induced colon weight increasement were improved by Cpd. 4 treatment (202.4±3.95 mg for 50 mg/kg Cpd. 4 preventive therapy and 214.4±5.17 mg for 50 mg/kg Cpd. 4 therapeutic therapy) (FIG. 2).
At the end of induction with TNBS, the animals were euthanized, and blood was collected immediately by the heart punctures and used for whole blood cell analysis.
At the end of the study (day 7), the cell suspensions from sham control, model control and Cpd. 4 therapeutic treatment groups were obtained from mesenteric lymph nodes (MLN). Cells were stained with the following florescence-labelled antibodies: APC-Cy7-conjugated anti-mouse CD45, BV510-conjugated anti-mouse CD3e, AF700-conjugated anti-mouse CD8a, BUV395-conjugated anti-mouse CD4, BV421-conjugated anti-mouse CD25, FITC-conjugated anti-mouse Foxp3, BV650-conjugated anti-mouse IFN-γ, BV786-conjugated anti-mouse IL-17A, BB700-conjugated anti-mouse TNF-α, APC-conjugated anti-mouse B220, BV395-conjugated anti-mouse CD3e, BV605-conjugated anti-mouse CD11b, BB700-conjugated anti-mouse CD11c, AF488-conjugated anti-mouse MHCII, BV421-conjugated anti-mouse NK1.1, BV510-conjugated anti-mouse Ly6G, PE-Cy7-conjugated anti-mouse CD107a and PE-CF594-conjugated anti-mouse F4/80. All cells were primarily gated on single and live lymphocytes based on forward scatter (FCS), side scatter (SSC) and live/dead staining buffer. Samples were analyzed on a flow cytometer (BD LSRFortessa) to count the percentage of each subtype of lymphocytes. […]

[2] = test system: LPS inhalation induced lung neutrophils infiltration model; assay: LPS inhalation induced neutrophils infiltration model in C57BL/6 mice; settings: Cpd. 4 50 mg/kg oral each day, Cpd. X 50 mg/kg iv twice a week, Cpd. XI 12 mg/kg iv twice a week, week 4-10, compared with Vehicle
Experimental: C57BL/6 mice (6-8 weeks old) were obtained from Shanghai LC Laboratory Animal Co. Ltd. Animals, housed and handled in a temperature-controlled environment with a 12-h light/12-h dark cycle. A total of 60 female C57BL/6J mice will be modeled by atomization inhalation LPS 3 times a week for 10 weeks (adjustments may be made according to animal health status). LPS concentration is at 0.7 mg/mL. On each day of challenge, animals in G1 will receive aerosol inhalation of PBS and intravenous injection of Vehicle; animals in G2 will receive aerosol inhalation of LPS and intravenous injection of Vehicle; animals in G3 will be given aerosol inhalation of LPS and intravenous injection of 50 mg/kg Cpd. X twice a week (D1/4) from week 4-10; animals in G4 will be given aerosol inhalation of LPS and intravenous injection of 12 mg/kg Cpd.XI twice a week (D1/4) from week 4-10; animals in G5 will be given aerosol inhalation of LPS and oral administration of 50 mg/kg Cpd. 4 each day from week 4-10; animals in G6 will be given aerosol inhalation of LPS and oral administration of dexamethasone 1 hour before each challenge. Lungs will be gently lavaged via the tracheal cannula with 0.8 mL of PBS containing 1% BSA and 0.6 mM EDTA 48 hr after the last LPS exposure. The procedure will be repeated twice with 0.8 mL of PBS containing 1% BSA and 0.6 mM EDTA. The bronchoalveolar lavage fluid (BALF) will be centrifuged at 300×g for 5 min at 4° C., the cell pellet will be resuspended in 1.5 mL PBS. Total numbers of neutrophils in BALF will be counted using a hemocytometer.

OVA induced asthma model = assay: OVA (ovalbumin) induced asthma model in Balb/cA mice
Excerpt: Ovalbumin (OVA)-sensitized and challenged BALB/c mice are widely used as an asthma model and are characterized by high levels of serum IgE, airway inflammation, epithelial hypertrophy, goblet cell hyperplasia, and AHR, which are similar to the features observed in human allergic asthma.
Female Balb/cA mice (8 weeks old) were obtained from Shanghai Jihui Laboratory Animal Co. Ltd. Animals were housed and handled in a temperature-controlled environment with a 12-h light/12-h dark cycle. A total of 66 mice were assigned to 6 groups by randomization based on body weight.
Mice in Group 2 are intraperitoneally immunized with OVA (25 μg) emulsified in Imject alum (2.0 mg of Al[OH]3) on day 1. During this sensitization phase, the mice produce anti-OVA IgE antibodies, which bind IgE receptors on mast cells. After this sensitization, the mice are intratracheally challenged with OVA from day 8 today 14, resulting in OVA cross-linked IgE on mast cells and leading to degranulating mast cells. Mice then develop clinical features of asthma. The mice in the Group 1 normal control group were sensitized and challenged with […] (without OVA).
Mice in Group 1 and Group 2 were treated with vehicle for 7 days (po, qd, from day 8 to day 14). Mice in Group 3 were treated with 50 mg/kg Cpd. X for 8 days (iv, biw, day 1 and day 4). Mice in Group 4 were treated with 30 mg/kg Cpd. 4 for 7 days (po, qd, from day 8 to day 14). Mice in Group 5 were treated with 100 mg/kg Cpd. 4 for 7 days (po, qd, from day 8 to day 14). 3 mg/kg dexamethasone was used as positive control which was orally administered to mice in Group 6 for 7 days (qd, from day 8 to day 14). The protocols and procedures involving the care and use of animals were approved by the Institutional Animal Care and Use Committee (IACUC) at KCI (Suzhou, China).
Airway responsiveness was determined invasively based on lung resistance.
After challenge with aerosolized methacholine. Briefly, mice were challenged with methacholine aerosol in increasing concentrations (0, 6.25, 12.5, and 25 mg/mL in saline) on day 13 by using the noninvasive pulmonary function instrument. Data on lung resistance were continuously collected, and mean values were selected to express changes in airway function and regarded as one form of inflammation expression. Data are presented as the airway stenosis index (penh).
Twenty-four hours after the final OVA challenge (on day 15), mice were killed, and BAL cells were collected by means of slow injection of ice-cold PBS into the trachea, which was repeated 3 times. Numbers of cells in BAL fluid were counted with a chamber. Number of eosinophils in a total of 100 cells was counted under a microscope. Results are expressed as percentage of eosinophils of BAL fluid.
Twenty-four hours after the final OVA challenge (on day 15), mice were killed, and the serum was collected. The OVA-specific IgE levels were measured with the method of enzyme linked immunosorbent assay (ELISA) according to manufacturer protocol.
Twenty-four hours after the final OVA challenge (on day 15), mice were killed, and the lung tissue samples were collected and fixed in 4% paraformaldehyde. Then, they were embedded in paraffin and cut into […] sections for histopathological analysis. Lung sections were then stained with hematoxylin and eosin (H&E) to calculate the inflammatory changes. The histopathological score was evaluated microscopically in a blinded manner. Five arbitrarily selected fields of each mouse were photographed with an optical microscope and the images were determined and analyzed in detail. […]

[3] = test system: IMQ induced psoriasis model; assay: IMQ induced psoriasis model in Balb/c mice; settings: Cpd. 4 100 mg/kg po qd day 0-6; tofacitinib 30 mg/kg po bid; compared with Vehicle
Excerpt: Imiquimod (IMQ) is a ligand for TLRs (Toll-like receptors) of immune cells (including macrophages, monocytes and plasmacytoid dendritic cells), and therefore contributes to strong activation of the immune system.
Female Balb/c mice (7-8 weeks old) were obtained from B&K Universal Animal Co. Ltd. Animals were housed and handled in a temperature-controlled environment with a 12-h light/12-h dark cycle. A total of 36 mice were assigned to 4 groups by randomization based on body weight (6 mice in normal control group and 10 mice in other 3 groups).
At the beginning of the study on day 0, five groups were administered a daily topical dose of 80 mg of a cream preparation containing 5% IMQ on their hair-free backs to establish a model of IMQ-induced psoriasis for seven consecutive days. The G1 normal control group received appropriate vaseline.
Mice in Group 1 and Group 2 were treated with vehicle for 7 days (po, qd, from day 0 to day 6). Mice in Group 3 were treated with 100 mg/kg Cpd. 4 for 7 days (po, qd, from day 0 to day 6). Mice in Group 4 were treated with 30 mg/kg tofacitinib for 7 days (po, bid, from day 0 to day 6). The protocols and procedures involving the care and use of animals were approved by the Institutional Animal Care and Use Committee (IACUC) at KCI (Suzhou, China).
The severity of skin inflammation was monitored and graded using a modified human scoring system Psoriasis Area Severity Index (PASI). Scaling, thickness, and erythema were scored separately on a scale from 0 to 4:0, none; 1, slight; 2, moderate; 3, marked; and 4, very marked. The total score denotes severity of inflammation. Ear thickness of mice was measured every day from day 0 to day 7.
Ear thickness of mice was measured every day from day 0 to day 7. […] Compared with G1 normal control group, after IMQ treatment, ear swelling was observed indicated by increased ear thickness in G2 group reaching the maximal ear thickness to 0.40±0.02 mm on day 7. Cpd.

[4] = Cpd. 4 preventive and therapeutic
[5] = day 15, Cpd. 4 30 and 100 mg/kg po qd, Cpd. X 50 mg/kg iv biw, dexamethasone 3 mg/kg po qd, compared with Vehicle

For `Nc1ccc(O)c(C(=O)O)c1` [mesalamine, Mesalamine, reference compound], the “disease activity index (DAI), clinical score of IBD” value ([1]; Cpd. 4 preventive (day −1 to day 6) and therapeutic (day 1 to day 6) regimens) was “significantly lowered DAI”, the “colon length (in words)” value [1, 4] was “significantly increased the colon length” and the “colon weight (in words)” value [1, 4] was “significantly reduced the colon weight”.

For `Cc1c(S(C)(=O)=O)c(-c2cc(F)cc(N3CCN(c4ccc(NS(=O)(=O)c5ccc(N[C@H](CCN6CCC(C(=O)OCCCP(=O)(O)O)CC6)CSc6ccccc6)c(S(=O)(=O)C(F)(F)F)c5)cc4)CC3)c2)c(-c2ccc(Cl)cc2)n1C(C)C` [Cpd. X], the “BALF neutrophils (infiltration in lung)” value [2] was “significantly reducing the BALF neutrophils; also recorded: significantly reduced”, the “pathological score in lung tissues (H&E)” value (OVA induced asthma model; 50 mg/kg iv biw, day 15, vehicle 4.08±0.23) was 2.58±0.15 and the “pathological score in lung tissues (in words)” value (OVA induced asthma model; Cpd. 4 and Cpd. X, compared with Vehicle) was “significantly ameliorated”. The “percentage of eosinophils in BALF” value (OVA induced asthma model; [5]) was “downregulated markedly; also recorded: significantly downregulated”, the “serum OVA-specific IgE (ELISA)” value (OVA induced asthma model; [5]) was “significantly reduced” and the “airway stenosis index (penh), airway hyper-responsiveness (AHR)” value (OVA induced asthma model; methacholine challenge day 13, Cpd. 4 30 and 100 mg/kg po qd day 8-14, Cpd. X 50 mg/kg iv biw, dexamethasone 3 mg/kg po qd, compared with Vehicle) was “significant inhibitory activity; also recorded: significantly reduced”.

For `Cc1c(S(C)(=O)=O)c(-c2cc(F)cc(N3CCN(c4ccc(NS(=O)(=O)c5ccc(N[C@H](CCN6CCC(C(=O)O)CC6)CSc6ccccc6)c(S(=O)(=O)C(F)(F)F)c5)cc4)CC3)c2)c(-c2ccc(Cl)cc2)n1C(C)C` [Cpd. XI], the “BALF neutrophils (infiltration in lung)” value [2] was “significantly reduced” and the “BALF neutrophils (infiltration in lung)” value ([2]; listed as Cpd.XI) was “significantly reducing the BALF neutrophils”.

For `C[C@@H]1CCN(C(=O)CC#N)C[C@@H]1N(C)c1ncnc2[nH]ccc12` [tofacitinib, reference compound], the “PASI score (Psoriasis Area Severity Index)” value [3] was “significantly lower PASI”.
